Laboratory results taken from US20080009802A1, “Method of treating acne with stratum corneum piercing device” (priority 2005, published 2008).
Like-named read-outs stand apart in the source and are kept apart here.

Test system: skin site on subject's forearm or face
Settings: for ENHANCED ACTIVE DELIVERY (HISTAMINE RESPONSE): about 10 microliters 0.10% wt/wt histamine, visual inspection after 10 minutes
Experimental: The microprotrusion disk of Example 1 was affixed on the desired skin site on subject's forearm or face. The implement of Example 3 was used to push the microprotrusion disk through stratum corneum with predetermined impact pressure modified by the choice of spring. The impact pressure was measured using a digital force meter (Model DFM 10, Chatillon, Greensboro, N.C.). The contact area between the implement device and skin was determined to be about 1.2 cm in diameter. The pressure per unit area was calculated from the ratio of pressure/contact area. The disk was removed immediately after the application. Both subject sensation (e.g., pain and sting) and erythema of the testing site were recorded immediately after the application, and is reported in Table 1.
The reaction of the subject's skin to histamine (e.g., erythema) was recorded after 10 minutes following histamine application to the treatment site by visual inspection. Additional inspection followed if a reaction was detected at 10 minutes. Controls were run by applying histamine solution to untreated skin sites (e.g., sites not pierced by the microprotrusion members). All test sites were graded visually for the evidence of post-inflammatory hyperpigmentation (PIH) for up to at least 3 weeks.

## NCCc1c[nH]cn1 [histamine]
Control test sites: untreated skin, not pierced by the microprotrusion members
  skin's reaction to topically applied histamine: did not result in erythema
Following microprotrusion treatment
  skin's reaction to topically applied histamine: manifested in erythema
Subject 1/Forearm, microprotrusion length 225 micrometer, 8 lbs/cm^2
  ENHANCED ACTIVE DELIVERY (HISTAMINE RESPONSE): Yes,
Subject 2/Forearm, microprotrusion length 225 micrometer, 6 lbs/cm^2
  ENHANCED ACTIVE DELIVERY (HISTAMINE RESPONSE): Yes,
Subject 3/Cheek (bone), microprotrusion length 185 micrometer, 3.2 lbs/cm^2
  ENHANCED ACTIVE DELIVERY (HISTAMINE RESPONSE): Yes, but not
Subject 4/Forearm, microprotrusion length 185 micrometer, 4.6 lbs/cm^2
  ENHANCED ACTIVE DELIVERY (HISTAMINE RESPONSE): Yes,
Subject 5/Forearm, microprotrusion length 185 micrometer, 8 lbs/cm^2
  ENHANCED ACTIVE DELIVERY (HISTAMINE RESPONSE): Yes,
Subject 6/Forehead, microprotrusion length 145 micrometer, 5 lbs/cm^2
  ENHANCED ACTIVE DELIVERY (HISTAMINE RESPONSE): Yes,
